Laboratory results as given in patent US9592309B2, “Positron emission tomography probe to monitor selected sugar metabolism in vivo” (The Regents of the University of California, priority 2012, dated 2017).

Experiments:
[1] = target: T1, 5′ FLAG-tagged human ribokinase (Homo sapiens, UniProt Q9H477); assay: Ribokinase assay (kinase reaction with isolated FLAG-tagged ribokinase); type: biochemical; conditions: 20 minutes at 37° C., 3 mM ATP
T1 construct: host or cells: 293T cells, transfected with pMSCV-IRES-YFP (pRBKS); captured with anti-FLAG M2 magnetic beads and eluted with FLAG peptide
Protocol: Human ribokinase plasmid was purchased from OriGene (NM_022128.1). A FLAG sequence was appended 5′ to the ribokinase sequence and the FLAG-tagged ribokinase was subcloned into the retroviral vector pMSCV-IRES-YFP (pRBKS). 293T cells were transfected with the pRBKS vector and Lipofectamine 2000 (Invitrogen) according to manufacturer's protocol. Cells were lysed in RIPA buffer (1% NP-40, 1% Sodium deoxycholate, 0.3% Sodium dodecyl sulfate, […], 1 mM EDTA, 50 mM Tris-HCl pH 6.8). Protein concentration was determined by the BCA Protein Assay Kit (Pierce), and FLAG-tagged ribokinase was captured from 1 mg of lysate with anti-FLAG M2 Magnetic Beads (Sigma) and eluted with 100 μL of FLAG peptide (Sigma), as per the manufacturer's protocol. Cells not transfected with RBKS were lysed as a control.
1 μL of FLAG-tagged ribokinase or control eluent was added to 50 mM Tris-HCl, pH 7.8, 3 mM ATP, 100 mM KCl, 10 mM MgCl2, 1× protease inhibitor cocktail (Roche), and 1 μCi [^3H]-Ribose (Moravek) or [^18F]-FDA in a 10 μL volume. […] In the case of [^3H]-ribose, the samples were dried, placed into scintillation vials, 3 mL of Bio-Safe NA (RPI Corp) was added to each vial, and the samples were measured on a scintillation counter. In the case of [^18F]-FDA, the samples were placed into scintillation vials and counted on a gamma counter. […]

[2] = Positron emission tomography / computed tomography imaging of mice; type: in vivo; conditions: for tissues in which the probe selectively accumulates: mice, positron emission tomography
Protocol: Positron Emission Tomography, Computed Tomography Imaging. 6-12-week old C57BL/6J female mice and 12-week old female B6.V-Lep^ob/J (Ob/Ob) mice were purchased from the Jackson Laboratory. Animals were anesthetized with 2% isofluorane and injected intravenous in the tail vein with 75-150 μCi of [^18F]-FDA. One hour post-injection, the mice were imaged for 10 minutes on a Siemens Inveon PET scanner and 10 minutes on a MicroCAT II CT system. […] Journal of Digital Imaging 17 (3), 205 (2004)).

[3] = test system: non-oxidative pentose phosphate pathway; assay: Mass spectrometry analysis of 2-fluoro-2-deoxyarabinose metabolites in mouse organs (MRM LC-MS); type: in vivo; conditions: mice
Protocol: Mice (8-12 weeks old) were treated with 25 μL of 500 mM 2-fluoro-2-deoxyarabinose. 1 hour later, the mice were sacrificed and the metabolites from distinct organs were extracted with 3× with 80% MeOH. Extracted metabolites were dried and analyzed by multiple reaction monitoring liquid chromatography-mass spectrometry (MRM LC-MS).

[4] = test system: enzymes in the pentose phosphate pathway; assay: Enzymes that metabolize 2-fluoro-2-deoxyarabinose in vitro (FIG. 6); type: in vitro ADME

T1 sequence (Q9H477 whole entry): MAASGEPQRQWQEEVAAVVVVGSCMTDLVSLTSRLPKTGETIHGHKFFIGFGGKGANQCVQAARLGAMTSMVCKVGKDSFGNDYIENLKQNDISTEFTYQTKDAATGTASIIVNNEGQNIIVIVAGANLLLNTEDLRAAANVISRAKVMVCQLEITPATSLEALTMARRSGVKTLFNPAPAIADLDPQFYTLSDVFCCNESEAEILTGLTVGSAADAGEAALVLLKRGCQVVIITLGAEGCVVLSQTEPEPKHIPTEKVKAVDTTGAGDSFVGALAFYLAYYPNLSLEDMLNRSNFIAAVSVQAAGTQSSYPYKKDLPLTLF

Row | phosphorylation by isolated ribokinase [1] | localization of probe to the liver ([2]; 12 week old C57Bl/6 female (wild-type) mice, 1 hour, PET/CT) | Molecule | tissues in which the probe selectively accumulates [2] | tissues in which the probe selectively accumulates ([2]; listed as 18F labelled 2-fluoro-2-deoxyarabinose) | metabolic pathway and metabolite in vivo ([3]; in vivo) | tissues that metabolize the probe ([3]; metabolite studies) | metabolism by enzymes in vitro [4]
1 | phosphorylates | – | [^3H]-Ribose [reference compound] | – | – | – | – | –
2 | phosphorylates | localizing significantly to the liver | OC[C@H]1O[C@@H](O)C([18F])C1O (some centres unmarked) [[^18F]-FDA, [^18F]-2-fluoro-2-deoxyarabinose] | accumulates in organs with high levels of ribokinase | murine liver, kidney and intestinal tissues | metabolized in vivo by the non-oxidative pentose phosphate pathway to 4-fluoro-4-deoxysedoheptulose-7-phosphate | metabolized by tissues in addition to the liver, including the spleen, muscles, heart, blood, thyroid, and kidneys | enzymes in the pentose phosphate pathway metabolize
